Measured values taken from patent publication US20250197374A1, “WEE1 DEGRADING COMPOUNDS AND USES THEREOF” (BRISTOL-MYERS SQUIBB COMPANY, priority 2023, published 2025).
Read-outs that look alike come from different tables or passages of the source.

How the values were obtained:
Format in all cases: cell-based
WEE1 = molecular target: T1, WEE1 (Homo sapiens, UniProt P30291+Q96SW2); experiment: WEE1-ePL degradation assay (293T-LentiX, InCELL Hunter luminescence, 4 hr); conditions: for 293T-LentiX WEE1-ePL Degradation 4 hr YMin (%): lower limit of fit, % of DMSO control signal remaining; for DC50: LentiX-HEK293T cells expressing WEE1-ePL, 4 hr incubation, read-out: 293T-LentiX WEE1-ePL Degradation 4 hr EC50
T1 construct: C-terminal ePL-tagged (DiscoverX, Fremont, CA) full-length WEE1 expression construct; expressed in transfected cells; host or cells: LentiX-HEK293T (Invitrogen), lentivirally transduced; the cells also over-express GSPT1-GN
T1 sequence (P30291 whole entry): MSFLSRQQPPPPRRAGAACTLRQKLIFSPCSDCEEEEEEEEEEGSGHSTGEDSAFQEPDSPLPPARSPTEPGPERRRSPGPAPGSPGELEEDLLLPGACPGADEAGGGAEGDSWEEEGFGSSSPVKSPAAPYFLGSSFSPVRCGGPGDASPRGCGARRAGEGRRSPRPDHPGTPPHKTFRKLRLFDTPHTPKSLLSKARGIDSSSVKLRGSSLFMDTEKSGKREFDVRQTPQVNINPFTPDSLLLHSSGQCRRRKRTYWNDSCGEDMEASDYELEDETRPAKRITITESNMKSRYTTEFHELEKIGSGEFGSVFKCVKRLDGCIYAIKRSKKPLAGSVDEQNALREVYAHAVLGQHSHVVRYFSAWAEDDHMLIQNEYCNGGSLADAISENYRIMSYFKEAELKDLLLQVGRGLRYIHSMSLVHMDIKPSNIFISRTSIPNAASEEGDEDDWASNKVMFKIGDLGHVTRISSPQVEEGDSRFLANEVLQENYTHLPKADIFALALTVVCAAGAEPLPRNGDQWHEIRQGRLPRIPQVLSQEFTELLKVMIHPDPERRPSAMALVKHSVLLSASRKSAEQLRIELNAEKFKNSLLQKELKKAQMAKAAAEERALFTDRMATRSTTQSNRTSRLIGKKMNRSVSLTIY
T1 sequence (Q96SW2 whole entry): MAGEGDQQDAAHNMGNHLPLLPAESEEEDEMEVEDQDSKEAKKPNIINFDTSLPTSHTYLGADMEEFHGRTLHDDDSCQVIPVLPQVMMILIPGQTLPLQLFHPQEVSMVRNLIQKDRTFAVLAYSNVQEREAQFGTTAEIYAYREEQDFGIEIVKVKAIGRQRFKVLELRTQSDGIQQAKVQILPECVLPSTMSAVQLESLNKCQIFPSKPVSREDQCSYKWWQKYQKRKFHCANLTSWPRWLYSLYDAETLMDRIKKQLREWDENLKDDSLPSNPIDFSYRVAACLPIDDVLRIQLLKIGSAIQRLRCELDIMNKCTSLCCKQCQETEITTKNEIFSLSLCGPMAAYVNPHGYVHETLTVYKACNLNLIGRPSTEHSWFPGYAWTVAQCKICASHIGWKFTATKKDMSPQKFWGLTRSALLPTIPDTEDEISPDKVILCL
T1 sequence (Q16531 whole entry partner): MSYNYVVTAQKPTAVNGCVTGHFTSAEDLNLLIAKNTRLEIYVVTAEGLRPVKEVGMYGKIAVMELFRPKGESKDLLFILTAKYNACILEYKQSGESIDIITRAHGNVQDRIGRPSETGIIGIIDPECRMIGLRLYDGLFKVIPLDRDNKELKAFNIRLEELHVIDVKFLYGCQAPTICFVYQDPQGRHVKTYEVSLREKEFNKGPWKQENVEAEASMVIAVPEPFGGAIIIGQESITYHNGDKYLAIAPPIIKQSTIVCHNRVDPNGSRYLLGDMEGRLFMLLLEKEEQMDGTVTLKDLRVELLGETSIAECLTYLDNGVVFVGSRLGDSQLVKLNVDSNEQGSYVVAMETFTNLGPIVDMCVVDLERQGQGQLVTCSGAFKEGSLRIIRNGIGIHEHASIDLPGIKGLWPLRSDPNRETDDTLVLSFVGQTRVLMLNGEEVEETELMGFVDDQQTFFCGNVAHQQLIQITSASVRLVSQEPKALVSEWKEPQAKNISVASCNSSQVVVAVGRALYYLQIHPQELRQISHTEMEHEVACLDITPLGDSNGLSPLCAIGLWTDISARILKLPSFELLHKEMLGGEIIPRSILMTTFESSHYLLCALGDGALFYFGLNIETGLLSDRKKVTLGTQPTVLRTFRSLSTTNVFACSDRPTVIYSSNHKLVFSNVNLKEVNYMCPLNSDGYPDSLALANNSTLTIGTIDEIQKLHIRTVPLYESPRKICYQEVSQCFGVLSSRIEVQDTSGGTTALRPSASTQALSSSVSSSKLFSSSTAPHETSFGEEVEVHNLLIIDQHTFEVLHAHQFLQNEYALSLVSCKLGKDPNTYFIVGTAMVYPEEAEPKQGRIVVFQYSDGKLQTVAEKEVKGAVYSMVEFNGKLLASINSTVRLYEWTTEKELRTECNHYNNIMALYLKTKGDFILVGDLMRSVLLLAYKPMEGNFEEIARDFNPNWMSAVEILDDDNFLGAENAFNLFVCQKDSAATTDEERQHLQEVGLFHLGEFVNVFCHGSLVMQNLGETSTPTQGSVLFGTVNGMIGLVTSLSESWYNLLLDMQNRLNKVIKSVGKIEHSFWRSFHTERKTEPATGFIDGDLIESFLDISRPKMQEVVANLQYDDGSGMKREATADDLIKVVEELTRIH
In short: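 LentiX-HEK293T cells expressing C-terminally ePL-tagged full-length WEE1 plus non-degradable GSPT1-GN (G575N, N-terminal 158 aa truncated). Treated 4 h at 37 °C with a 10-point, 3-fold series from 1 or 10 µM, then read by InCELL Hunter luminescence. EC50 from four-parameter logistic fit, Ymax set by DMSO control.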

MKN45 cells = experiment: MKN45 cell proliferation assay (Cell-Titer-Glo, 120 hr); conditions: for EC50: read-out: MKN45 Cell Prolif. 120 hr EC50; for MKN45 Cell Prolif. 120 hr YMin (%): minimal percent of DMSO control observed
In short: (§1)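 MKN45 (400/well) and MDA-MB-231 (800/well) cells in RPMI with 10% FBS were exposed to 10-point half-log doses from 1 or 10 uM (0.1% DMSO) for 120 h at 37 °C. Viability was read by CellTiter-Glo luminescence. EC50 came from blank-subtracted, %DMSO four-parameter fits, with Ymin-obs as the lowest %DMSO observed.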

MDA-MB-231 cells = experiment: MDA-MB-231 cell proliferation assay (Cell-Titer-Glo, 120 hr); conditions: for EC50: read-out: MDA-MB 231 Cell Prolif. 120 hr EC50; for MDA-MB 231 Cell Prolif. 120 hr YMin (%): minimal percent of DMSO control observed
In short: as §1

[1] = Homo sapiens, MDA-MB-231, 120 h

SMILES | 293T-LentiX WEE1-ePL Degradation 4 hr YMin (%) (WEE1) | EC50 (MKN45 cells; Homo sapiens, MKN-45, 120 h) [nM] | MKN45 Cell Prolif. 120 hr YMin (%) (MKN45 cells) | EC50 (MDA-MB-231 cells; [1]) [nM] | MDA-MB 231 Cell Prolif. 120 hr YMin (%) (MDA-MB-231 cells) | DC50 (WEE1) [nM] | EC50 (MKN45 cells) [nM] | EC50 (MDA-MB-231 cells) [nM]
COC[C@@H]1CN(Cc2cc(F)c3nc(C4CCCCO4)ccc3c2)C[C@H]1Oc1ccc2c(c1)CN([C@H]1CCC(=O)NC1=O)C2=O (relative stereo) [Example 69, rel-(3S)-3-(5-{[(3S,4S)-1-{[8-fluoro-2-(oxan-2-yl)quinolin-6-yl]methyl}-4-(methoxymethyl)pyrrolidin-3-yl]oxy}-1-oxo-2,3-dihydro-1H-isoindol-2-yl)piperidine-2,6-dione] | 27.7 | 1 | 8.6 | 9 | 20.5 | – | – | –
COC[C@@H]1CN(Cc2cc3ccc(N4CCN(C(C)=O)C5(CC5)C4)cc3cn2)C[C@H]1Oc1ccc2c(c1)CN([C@H]1CCC(=O)NC1=O)C2=O [Example 88, (3S)-3-(5-{[(3S,4S)-1-[(7-{4-acetyl-4,7-diazaspiro[2.5]octan-7-yl}isoquinolin-3-yl)methyl]-4-(methoxymethyl)pyrrolidin-3-yl]oxy}-1-oxo-2,3-dihydro-1H-isoindol-2-yl)piperidine-2,6-dione] | 28.3 | 1 | 9.1 | 11 | 13.1 | 3 | – | –
COC[C@@H]1CN(Cc2cc3ccc(N4CCN(C(C)=O)C5(COC5)C4)cc3cn2)C[C@H]1Oc1ccc2c(c1)CN([C@H]1CCC(=O)NC1=O)C2=O [Example 87, (3S)-3-(5-{[(3S,4S)-1-[(7-{5-acetyl-2-oxa-5,8-diazaspiro[3.5]nonan-8-yl}isoquinolin-3-yl)methyl]-4-(methoxymethyl)pyrrolidin-3-yl]oxy}-1-oxo-2,3-dihydro-1H-isoindol-2-yl)piperidine-2,6-dione] | 32.2 | 7 | 9.7 | 112 | 31.8 | 11 | – | –
COC[C@@H]1CN(Cc2cc(F)c3nc(N4CCC(OC)C4)ccc3c2)C[C@H]1Oc1ccc2c(c1)CN([C@H]1CCC(=O)NC1=O)C2=O (single isomer, unassigned) [Example 98, (S)-3-(5-(((3S,4S)-1-((8-fluoro-2-((S*)-3-methoxypyrrolidin-1-yl)quinolin-6-yl)methyl)-4-(methoxymethyl)pyrrolidin-3-yl)oxy)-1-oxoisoindolin-2-yl)piperidine-2,6-dione] | 29.4 | – | 9.0 | – | 25.1 | 1 | 1 | 13
COC[C@@H]1CN(Cc2cc(F)c3nc(C45C6C7C4C4C5C6C74C(C)(C)O)ccc3c2)C[C@H]1Oc1ccc2c(c1)CN([C@H]1CCC(=O)NC1=O)C2=O (stereo partly drawn) [Example 121, (S)-3-(5-(((3S,4S)-1-((8-fluoro-2-(4-(2-hydroxypropan-2-yl)cuban-1-yl)quinolin-6-yl)methyl)-4-(methoxymethyl)pyrrolidin-3-yl)oxy)-1-oxoisoindolin-2-yl)piperidine-2,6-dione] | 18.7 | – | 7.5 | 26 | 13.2 | – | – | –
COC[C@@H]1CN(Cc2cc(F)c3nc(C45CCC(O)(CC4)CC5)ccc3c2)C[C@H]1Oc1ccc2c(c1)CN([C@H]1CCC(=O)NC1=O)C2=O [Example 55, (3S)-3-(5-{[(3S,4S)-1-[(8-fluoro-2-{4-hydroxybicyclo[2.2.2]octan-1-yl}quinolin-6-yl)methyl]-4-(methoxymethyl)pyrrolidin-3-yl]oxy}-1-oxo-2,3-dihydro-1H-isoindol-2-yl)piperidine-2,6-dione] | 27.9 | – | 10.9 | 16 | 22.6 | – | – | –
O=C1CC[C@H](N2Cc3cc(O[C@@H]4CN(Cc5cc(F)c6nc(C7CCOCC7)ccc6c5)C[C@H]4CO)ccc3C2=O)C(=O)N1 [Example 139, (3S)-3-(5-{[(3S,4S)-1-{[8-fluoro-2-(oxan-4-yl)quinolin-6-yl]methyl}-4-(hydroxymethyl)pyrrolidin-3-yl]oxy}-1-oxo-2,3-dihydro-1H-isoindol-2-yl)piperidine-2,6-dione] | 20.2 | 5 | 10.3 | 133 | 65.9 | 2 | – | –
COC[C@@H]1CN(Cc2cc(F)c3nc(C(=O)N(C)C)ccc3c2)C[C@H]1Oc1ccc2c(c1)CN([C@H]1CCC(=O)NC1=O)C2=O [Example 58, 6-{[(3S,4S)-3-({2-[(3S)-2,6-dioxopiperidin-3-yl]-1-oxo-2,3-dihydro-1H-isoindol-5-yl}oxy)-4-(methoxymethyl)pyrrolidin-1-yl]methyl}-8-fluoro-N,N-dimethylquinoline-2-carboxamide] | 31.1 | 6 | 11.2 | 213 | 28.1 | 5 | – | –
COC[C@@H]1CN(Cc2cc(F)c3nc(COC4CCN(C)CC4)ccc3c2)C[C@H]1Oc1ccc2c(c1)CN([C@H]1CCC(=O)NC1=O)C2=O [Example 34, (3S)-3-(5-{[(3S,4S)-1-[(8-fluoro-2-{[(1-methylpiperidin-4-yl)oxy]methyl}quinolin-6-yl)methyl]-4-(methoxymethyl)pyrrolidin-3-yl]oxy}-1-oxo-2,3-dihydro-1H-isoindol-2-yl)piperidine-2,6-dione] | 21.8 | 4 | 6.9 | 108 | 30.7 | 4 | – | –
COC[C@@H]1CN(Cc2cc(F)c3nc(N4CCN(C5COC5)CC4)ncc3c2)C[C@H]1Oc1ccc2c(c1)CN([C@H]1CCC(=O)NC1=O)C2=O [Example 141, (3S)-3-(5-{[(3S,4S)-1-({8-fluoro-2-[4-(oxetan-3-yl)piperazin-1-yl]quinazolin-6-yl}methyl)-4-(methoxymethyl)pyrrolidin-3-yl]oxy}-1-oxo-2,3-dihydro-1H-isoindol-2-yl)piperidine-2,6-dione] | 26.5 | 1 | 11.4 | 44 | 31.7 | 1 | – | –
COC[C@@H]1CN(Cc2cc(F)c3nc(COC4CCOCC4)ccc3c2)C[C@H]1Oc1ccc2c(c1)CN([C@H]1CCC(=O)NC1=O)C2=O [Example 33, (3S)-3-(5-{[(3S,4S)-1-({8-fluoro-2-[(oxan-4-yloxy)methyl]quinolin-6-yl}methyl)-4-(methoxymethyl)pyrrolidin-3-yl]oxy}-1-oxo-2,3-dihydro-1H-isoindol-2-yl)piperidine-2,6-dione] | 29.3 | 1 | 9.7 | 28 | 28.6 | 1 | – | –
COC[C@@H]1CN(Cc2cc(F)c3nc(C(=O)N(C)C4CCOCC4)ccc3c2)C[C@H]1Oc1ccc2c(c1)CN([C@H]1CCC(=O)NC1=O)C2=O [Example 117, 6-{[(3S,4S)-3-({2-[(3S)-2,6-dioxopiperidin-3-yl]-1-oxo-2,3-dihydro-1H-isoindol-5-yl}oxy)-4-(methoxymethyl)pyrrolidin-1-yl]methyl}-8-fluoro-N-methyl-N-(oxan-4-yl)quinoline-2-carboxamide] | 27.5 | 4 | 9.1 | 31 | 40.1 | 2 | – | –
